This is an account of results in patent US9611251B2, “Substituted piperidine compounds and their use as orexin receptor modulators” (Janssen Pharmaceutica NV, priority 2013, dated 2017).

By Ki is commonly meant the equilibrium dissociation constant of an inhibitor or competing ligand from its target.

Bounds are passed on as bounds.

One assay addresses rat orexin 1 receptor (Rattus norvegicus, UniProt P56718). The assay can be described thus: Rat orexin 1 receptor radioligand binding. To be noted: rat orexin 1 receptor radioligand binding; averages of 2-20 runs; read-out: rOX1 Ki. In a few lines:
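Cell-suspension competition binding used 4 nM final tritiated thiazolyl-pyrrolidinyl-methanone radioligand in PBS, ≤0.1% DMSO, with 10 µM almorexant defining nonspecific binding. Filter-bound radioactivity was counted in triplicate. IC50 came from one-site competition fits and was converted to Ki using the predetermined Kd.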

For a further assay, the target named is human orexin 2 receptor (Homo sapiens (Human), UniProt O43614). The assay can be described thus: Human orexin 2 receptor radioligand binding ([3H]-EMPA). To be noted: averages of 2-20 runs, read-out: hOX2 Ki. In a few lines: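 Competition binding using homogenized HEK293 cells stably expressing human orexin 2 receptor, [3H]-EMPA at 2 nM final and ≤0.1% DMSO; nonspecific binding set with 10 μM almorexant. Filter-bound radioactivity counted by scintillation; one-site competition IC50 converted to Ki using pre-determined Kd, compounds run in triplicate.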

For another assay, the target named is human orexin 1 receptor (Homo sapiens, UniProt O43613). Briefly: Human orexin 1 receptor radioligand binding. To be noted: human orexin 1 receptor radioligand binding; averages of 2-20 runs; read-out: hOX1 Ki.

Chain of human orexin 2 receptor (O43614 whole entry): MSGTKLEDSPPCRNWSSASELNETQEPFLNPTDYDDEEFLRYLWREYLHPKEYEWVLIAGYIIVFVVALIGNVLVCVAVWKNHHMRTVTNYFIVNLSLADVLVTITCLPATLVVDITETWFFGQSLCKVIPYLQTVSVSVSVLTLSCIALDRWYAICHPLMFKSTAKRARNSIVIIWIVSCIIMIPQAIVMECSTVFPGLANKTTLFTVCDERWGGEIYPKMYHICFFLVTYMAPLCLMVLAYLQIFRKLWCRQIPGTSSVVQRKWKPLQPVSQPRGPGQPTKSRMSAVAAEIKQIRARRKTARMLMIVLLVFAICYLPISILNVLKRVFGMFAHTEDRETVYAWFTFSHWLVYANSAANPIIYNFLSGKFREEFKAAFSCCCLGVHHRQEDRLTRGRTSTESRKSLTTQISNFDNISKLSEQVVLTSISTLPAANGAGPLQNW

Turning to `Cc1cnc(-n2nccn2)c(C(=O)N2CCC[C@@H](Oc3ncc(C(F)(F)F)cc3F)[C@@H]2C)c1` [Example 157, ((2S,3R)-3-((3-fluoro-5-(trifluoromethyl)pyridin-2-yl)oxy)-2-methylpiperidin-1-yl)(5-methyl-2-(2H-1,2,3-triazol-2-yl)pyridin-3-yl)methanone], the Ki at rat orexin 1 receptor was 49 nM; on human orexin 2 receptor, above 10000 nM; on human orexin 1 receptor it was 27 nM.

Take `Cc1cccc(C(=O)N2CCC[C@@H](Oc3ncc(C(F)(F)F)cc3F)[C@@H]2C)c1-n1nccn1` [Example 158, ((2S,3R)-3-((3-fluoro-5-(trifluoromethyl)pyridin-2-yl)oxy)-2-methylpiperidin-1-yl)(3-methyl-2-(2H-1,2,3-triazol-2-yl)phenyl)methanone]: the Ki at rat orexin 1 receptor is 36 nM; on human orexin 2 receptor, 575 nM; at human orexin 1 receptor, 34 nM.

With `C[C@H]1[C@H](Oc2ncc(C(F)(F)F)cc2F)CCCN1C(=O)c1cccc(F)c1-n1nccn1` [Example 159, (3-fluoro-2-(2H-1,2,3-triazol-2-yl)phenyl)((2S,3R)-3-((3-fluoro-5-(trifluoromethyl)pyridin-2-yl)oxy)-2-methylpiperidin-1-yl)methanone], the results for the Ki at rat orexin 1 receptor, at human orexin 2 receptor and on human orexin 1 receptor were 60 nM, 1550 nM and 14 nM, respectively.

As to `Cc1ccc(-n2nccn2)c(C(=O)N2CCC[C@@H](Oc3ncc(C(F)(F)F)cc3F)[C@@H]2C)n1` [Example 160, ((2S,3R)-3-((3-fluoro-5-(trifluoromethyl)pyridin-2-yl)oxy)-2-methylpiperidin-1-yl)(6-methyl-3-(2H-1,2,3-triazol-2-yl)pyridin-2-yl)methanone], the Ki is 23 nM on rat orexin 1 receptor, 620 nM on human orexin 2 receptor and 22 nM on human orexin 1 receptor.

For `C[C@H]1[C@H](Oc2ncc(Cl)cn2)CCCN1C(=O)c1cccc(F)c1-n1nccn1` [Example 161, ((2S,3R)-3-((5-chloropyrimidin-2-yl)oxy)-2-methylpiperidin-1-yl)(3-fluoro-2-(2H-1,2,3-triazol-2-yl)phenyl)methanone], the Ki is 226 nM at rat orexin 1 receptor, 3200 nM on human orexin 2 receptor and 395 nM at human orexin 1 receptor.

Turning to `Cc1ccc(-n2nccn2)c(C(=O)N2CCC[C@@H](Oc3ncc(Cl)cn3)[C@@H]2C)n1` [Example 164, ((2S,3R)-3-((5-chloropyrimidin-2-yl)oxy)-2-methylpiperidin-1-yl)(6-methyl-3-(2H-1,2,3-triazol-2-yl)pyridin-2-yl)methanone], the Ki on rat orexin 1 receptor was 144 nM; at human orexin 2 receptor, 3800 nM; at human orexin 1 receptor, 230 nM.

For the compound `C[C@H]1[C@H](Oc2ncc(C(F)(F)F)cn2)CCCN1C(=O)c1ccccc1-c1ncc(F)cn1` [Example 165, (2-(5-fluoropyrimidin-2-yl)phenyl)((2S,3R)-2-methyl-3-((5-(trifluoromethyl)pyrimidin-2-yl)oxy)piperidin-1-yl)methanone], the Ki on rat orexin 1 receptor was 59 nM; at human orexin 2 receptor, 4400 nM; at human orexin 1 receptor it was 77 nM.

Turning to `C[C@H]1[C@H](Oc2cnc(C(F)(F)F)cn2)CCCN1C(=O)c1ccccc1-c1ncc(F)cn1` [Example 166, (2-(5-fluoropyrimidin-2-yl)phenyl)((2S,3R)-2-methyl-3-((5-(trifluoromethyl)pyrazin-2-yl)oxy)piperidin-1-yl)methanone], the results for the Ki on rat orexin 1 receptor, at human orexin 2 receptor and at human orexin 1 receptor were 97 nM, 3100 nM and 124 nM, respectively.

As to `Cc1cccc(C(=O)N2CCC[C@@H](Oc3ncc(C(F)(F)F)cn3)[C@@H]2C)c1-c1ncccn1` [Example 167, (3-methyl-2-(pyrimidin-2-yl)phenyl)((2S,3R)-2-methyl-3-((5-(trifluoromethyl)pyrimidin-2-yl)oxy)piperidin-1-yl)methanone], the figures for the inhibition constant Ki on rat orexin 1 receptor, at human orexin 2 receptor and on human orexin 1 receptor were 30 nM, 1800 nM and 28 nM, respectively.

On to `C[C@H]1[C@H](Oc2cnc(C(F)(F)F)cn2)CCCN1C(=O)c1ccccc1-c1ncccn1` [Example 168, ((2S,3R)-2-methyl-3-((5-(trifluoromethyl)pyrazin-2-yl)oxy)piperidin-1-yl)(2-(pyrimidin-2-yl)phenyl)methanone], for which the Ki is 29 nM on rat orexin 1 receptor, 951 nM on human orexin 2 receptor and 25 nM on human orexin 1 receptor.

`C[C@H]1[C@H](Oc2ncc(C(F)(F)F)cn2)CCCN1C(=O)c1ccccc1-c1ncccn1` [Example 169, ((2S,3R)-2-methyl-3-((5-(trifluoromethyl)pyrimidin-2-yl)oxy)piperidin-1-yl)(2-(pyrimidin-2-yl)phenyl)methanone]: the Ki at rat orexin 1 receptor stood at 32 nM; on human orexin 2 receptor it was 1200 nM; on human orexin 1 receptor, 23 nM.

Turning to `Cc1cccc(C(=O)N2CCC[C@@H](Oc3ncc(C(F)(F)F)cn3)[C@@H]2C)c1-c1ncc(F)cn1` [Example 170, (2-(5-fluoropyrimidin-2-yl)-3-methylphenyl)((2S,3R)-2-methyl-3-((5-(trifluoromethyl)pyrimidin-2-yl)oxy)piperidin-1-yl)methanone], the figures for the Ki on rat orexin 1 receptor, at human orexin 2 receptor and on human orexin 1 receptor were 48 nM, 2800 nM and 49 nM, respectively.

As to `Cc1cccc(C(=O)N2CCC[C@@H](Oc3cnc(C(F)(F)F)cn3)[C@@H]2C)c1-c1ncccn1` [Example 171, (3-methyl-2-(pyrimidin-2-yl)phenyl)((2S,3R)-2-methyl-3-((5-(trifluoromethyl)pyrazin-2-yl)oxy)piperidin-1-yl)methanone], the Ki is 34 nM on rat orexin 1 receptor, 1100 nM on human orexin 2 receptor and 29 nM on human orexin 1 receptor.

As for `C[C@H]1[C@H](Oc2ncc(C(F)(F)F)cn2)CCCN1C(=O)c1cc(F)ccc1-c1ncco1` [Example 175, (5-fluoro-2-(oxazol-2-yl)phenyl)((2S,3R)-2-methyl-3-((5-(trifluoromethyl)pyrimidin-2-yl)oxy)piperidin-1-yl)methanone], the Ki at rat orexin 1 receptor came to 124 nM; on human orexin 2 receptor, 4400 nM; at human orexin 1 receptor it was 188 nM.

`Cc1cnc(-n2nccn2)c(C(=O)N2CCC[C@@H](Oc3cnc(C(F)(F)F)cn3)[C@@H]2C)c1` [Example 177, (5-methyl-2-(2H-1,2,3-triazol-2-yl)pyridin-3-yl)((2S,3R)-2-methyl-3-((5-(trifluoromethyl)pyrazin-2-yl)oxy)piperidin-1-yl)methanone]: the Ki was 238 nM at rat orexin 1 receptor, above 10000 nM at human orexin 2 receptor and 166 nM on human orexin 1 receptor.

In the case of `C[C@H]1[C@H](Oc2cnc(C(F)(F)F)cn2)CCCN1C(=O)c1cc(F)ccc1-c1ncco1` [Example 179, (5-fluoro-2-(oxazol-2-yl)phenyl)((2S,3R)-2-methyl-3-((5-(trifluoromethyl)pyrazin-2-yl)oxy)piperidin-1-yl)methanone], the results for the Ki on rat orexin 1 receptor, at human orexin 2 receptor and on human orexin 1 receptor were 100 nM, 1900 nM and 68 nM, respectively.

Consider `Cc1cnc(-c2ncccn2)c(C(=O)N2CCC[C@@H](Oc3ccc(C(F)(F)F)cn3)[C@@H]2C)c1` [Example 211, (5-methyl-2-(pyrimidin-2-yl)pyridin-3-yl)((2S,3R)-2-methyl-3-((5-(trifluoromethyl)pyridin-2-yl)oxy)piperidin-1-yl)methanone], for which the Ki at rat orexin 1 receptor is 120 nM; on human orexin 2 receptor it was above 10000 nM; on human orexin 1 receptor, 124 nM.

For the compound `C[C@H]1[C@H](Oc2ccc(C(F)(F)F)cn2)CCCN1C(=O)c1c(F)cccc1-c1ncccn1` [Example 212, (2-fluoro-6-(pyrimidin-2-yl)phenyl)((2S,3R)-2-methyl-3-((5-(trifluoromethyl)pyridin-2-yl)oxy)piperidin-1-yl)methanone], the Ki at rat orexin 1 receptor worked out at 45 nM; at human orexin 2 receptor, 915 nM; on human orexin 1 receptor, 132 nM.

For `Cc1ccc(-c2ncccn2)c(C(=O)N2CCC[C@@H](Oc3ccc(C(F)(F)F)cn3)[C@@H]2C)n1` [Example 213, ((2S,3R)-2-methyl-3-((5-(trifluoromethyl)pyridin-2-yl)oxy)piperidin-1-yl)(6-methyl-3-(pyrimidin-2-yl)pyridin-2-yl)methanone], the Ki at rat orexin 1 receptor worked out at 23 nM; on human orexin 2 receptor, 217 nM; on human orexin 1 receptor it was 68 nM.

As to `Cc1cnc(-n2nccn2)c(C(=O)N2CCC[C@@H](Oc3ccc(Cl)cn3)[C@@H]2C)c1` [Example 214, ((2S,3R)-3-((5-chloropyridin-2-yl)oxy)-2-methylpiperidin-1-yl)(5-methyl-2-(2H-1,2,3-triazol-2-yl)pyridin-3-yl)methanone], the Ki at rat orexin 1 receptor was determined as 38 nM; on human orexin 2 receptor it was 5400 nM; at human orexin 1 receptor, 78 nM.

With `Cc1ccc(-n2nccn2)c(C(=O)N2CCC[C@@H](Oc3ccc(Cl)cn3)[C@@H]2C)n1` [Example 215, ((2S,3R)-3-((5-chloropyridin-2-yl)oxy)-2-methylpiperidin-1-yl)(6-methyl-3-(2H-1,2,3-triazol-2-yl)pyridin-2-yl)methanone], the Ki on rat orexin 1 receptor stood at 12 nM; at human orexin 2 receptor, 374 nM; on human orexin 1 receptor it was 35 nM.

For the compound `Cc1cnc(C(=O)N2CCC[C@@H](Oc3ccc(Cl)cn3)[C@@H]2C)c(-c2ncccn2)c1` [Example 216, ((2S,3R)-3-((5-chloropyridin-2-yl)oxy)-2-methylpiperidin-1-yl)(5-methyl-3-(pyrimidin-2-yl)pyridin-2-yl)methanone], the values for the Ki at rat orexin 1 receptor, on human orexin 2 receptor and at human orexin 1 receptor were 52 nM, 8200 nM and 89 nM, respectively.

Take `Cc1cnc(-c2ncccn2)c(C(=O)N2CCC[C@@H](Oc3ccc(Cl)cn3)[C@@H]2C)c1` [Example 217, ((2S,3R)-3-((5-chloropyridin-2-yl)oxy)-2-methylpiperidin-1-yl)(5-methyl-2-(pyrimidin-2-yl)pyridin-3-yl)methanone]: the Ki was 177 nM at rat orexin 1 receptor, 8900 nM at human orexin 2 receptor and 154 nM on human orexin 1 receptor.
